Molecules are shown by their SMILES. Converted amounts (≈) assume the structure as drawn.

40 compounds from PubChem BioAssay AID1996 can be followed below.

The conditions of this series: buffer; pH 7.4; 200.0 µM.
As usually defined, the solubility (kinetic) is the concentration staying in solution when a stock, usually in DMSO, is diluted into the medium. `CN1CCN(CCCNC(=O)Nc2ccc([N+](=O)[O-])cc2)CC1` had a kinetic solubility of 44.8 µg/mL (≈ 139 µM).

In turn, `S=C(Nc1ccc(Cl)cc1)NC1CCCCC1` displayed a kinetic solubility of 4.4 µg/mL (≈ 16.4 µM).

`O=c1cc(O)c2sc(Nc3cccc(C(F)(F)F)c3)nc2[nH]1`: the kinetic solubility was 36.9 µg/mL (≈ 113 µM).

On to `COc1ccc(CCNc2ncnc3c2c(C)c(C)n3CCO)cc1OC`, for which the kinetic solubility turned out to be 53.8 µg/mL (≈ 145 µM).

In turn, `CS(=O)(=O)N1Cc2ccccc2CC1C(=O)O` (stereo not given) gave a kinetic solubility of more than 38.3 µg/mL.

Regarding `CCOC(=O)Cc1csc(CC(N)=O)[nH+]1.[Cl-]`, the kinetic solubility was more than 39.7 µg/mL.

`Cc1ccn2cc(CNS(=O)(=O)c3cccs3)nc2c1` gave a solubility (kinetic) of more than 46.1 µg/mL.

`CN(C)CCNC(=S)NC1CCCCC1` had a kinetic solubility of 32.7 µg/mL (≈ 143 µM).

For the compound `Cc1ccc(-c2ocnc2C(=O)Nc2nc(C)cs2)cc1`, the kinetic solubility came out at 1.1 µg/mL (≈ 3.67 µM).

On to `CN(C)C(=O)C[n+]1ccc(C(N)=O)cc1.[Cl-]`, for which the solubility (kinetic) stood at 35.4 µg/mL. This solubility kinetic lies about 32-fold higher than the previous one.

With `NC(=O)NC(c1ccc(Cl)cc1)c1ccccc1Cl` (stereo not given), the solubility (kinetic) is more than 44.3 µg/mL.

Regarding `Cc1ccc(CONC(=O)c2cccc([N+](=O)[O-])c2)cc1`, the solubility (kinetic) was more than 42.9 µg/mL.

Consider `CCOC(=O)c1cc(C)[nH]c1C`, for which the kinetic solubility is 24.7 µg/mL (≈ 148 µM).

`O=C(Nc1cc(Cl)ccn1)C1(c2ccccc2)CC1(Cl)Cl` (stereo not given) had a solubility (kinetic) of less than 0.4 µg/mL.

`CC(C)NC(=O)C(=O)Nc1cc2c3c(c1)C(C)C(=O)N3CCC2` (stereo not given) displayed a kinetic solubility of 44.6 µg/mL (≈ 141 µM).

`COC(=O)/C=C1/SC(=Nc2ccc(Cl)c(Cl)c2)NC1=O`: the solubility (kinetic) stood at 1 µg/mL (≈ 3.02 µM).

For the compound `CC(=O)Nc1cccc(Oc2ccc3c(c2)C(=O)NC3=O)c1`, the solubility (kinetic) was more than 44.4 µg/mL.

`COc1ccc(NC(=O)COC(=O)c2ccc(F)cc2F)cc1` displayed a solubility (kinetic) of more than 48.2 µg/mL.

`Nc1ccc(C(=O)NC23CC4CC(CC(C4)C2)C3)cc1` displayed a kinetic solubility of 37.3 µg/mL (≈ 138 µM).

The compound `COc1cccc2cc(C(=O)NCc3ccc(F)cc3)c(=N)oc12` registered a kinetic solubility of 1.7 µg/mL (≈ 5.21 µM).

In the case of `Cl.OC(COCc1ccc(Cl)cc1)CN1CCCCC1` (stereo not given), the kinetic solubility turned out to be 46.4 µg/mL. Compared with the last compound, the solubility kinetic is about 27-fold higher.

As for `COC(=O)CNC(=O)c1cc(-c2ccncc2)nc2ccccc12`, the solubility (kinetic) is more than 48.2 µg/mL.

`COC(=O)CC1=C(C(=O)OC)[C@@H](c2ccccc2[N+](=O)[O-])C(C#N)=C(N)O1` registered a solubility (kinetic) of more than 56 µg/mL.

`Cn1c(-c2cc3ccccc3oc2=O)nc2ccccc21` displayed a solubility (kinetic) of 2.5 µg/mL (≈ 9.05 µM).

`NC(=O)C1CC(=O)N(c2ccc(OCC(=O)NCc3ccccc3)cc2)C1` (stereo not given) showed a kinetic solubility of more than 55.1 µg/mL.

As to `CC12CCC(C(=O)N3CCOCC3)([C@H](Br)C1=O)C2(C)C` (stereo not given in full), the kinetic solubility was more than 51.6 µg/mL.

Consider `COc1ccc2nc(SCCC(=O)O)cc(C)c2c1`, for which the kinetic solubility was more than 41.6 µg/mL.

For the compound `COc1cc(C(=O)N2CCN(c3ccccn3)CC2)cc(OC)c1OC`, the solubility (kinetic) was more than 53.6 µg/mL.

Turning to `CC(=O)Nc1ccc2c(COC(=O)[C@@H](NS(=O)(=O)c3ccc(C)cc3)C(C)C)cc(=O)oc2c1`, the solubility (kinetic) was 8.6 µg/mL (≈ 17.7 µM).

In the case of `COc1ccc(N2CC2c2ccncc2)cc1` (stereo not given), the kinetic solubility was more than 33.9 µg/mL.

For `O=C(CNC(=O)c1ccccc1Cl)Nc1ccncc1`, the solubility (kinetic) is more than 43.5 µg/mL.

The compound `COc1ccc(S(=O)(=O)NC2CCCC2)cc1C(N)=O` gave a kinetic solubility of more than 44.8 µg/mL.

With `Cc1c(N)cc[n+](CC(=O)c2ccccc2)c1C.[Br-]`, the solubility (kinetic) is more than 48.2 µg/mL.

`CCC(Oc1ccccc1OC)C(=O)Nc1ccc2c(c1)n(C)c(=O)n2C` (stereo not given): the solubility (kinetic) is more than 55.4 µg/mL.

In turn, `COc1ccccc1NS(=O)(=O)c1ccc2oc(SC)nc2c1` had a solubility (kinetic) of 1.9 µg/mL (≈ 5.42 µM).

`O=C(NC1CCCC1)c1cc(-c2ccc(Cl)cc2)on1` came in with a kinetic solubility of less than 0.3 µg/mL.

Take `CC(C)[N+](C)(CCOC(=O)C1c2ccccc2Oc2ccccc21)C(C)C.[Br-]`: the solubility (kinetic) was more than 67.3 µg/mL.

Regarding `COc1cccc(CN(C)C(=O)c2cc(S(=O)(=O)N3CCCC3)ccc2C)c1OC`, the kinetic solubility is more than 64.9 µg/mL.

Compound `c1ccc(OCc2nc(-c3ccncc3)no2)cc1` came in with a kinetic solubility of 36.5 µg/mL (≈ 144 µM).

Compound `NC(=O)COC(=O)CNC(=O)c1sc2ccccc2c1Cl` came in with a kinetic solubility of 44.8 µg/mL (≈ 137 µM).
